Literature values in patent US20110245279A1, “PREDICTIVE MARKER FOR EGFR INHIBITOR TREATMENT” (priority 2007, published 2011).
Read-outs that look alike come from different tables or passages of the source.

Key:
[1] = system: RARRES1 gene
[2] = system: NSCLC
[3] = system: NSCLC; details: single agent; NSCLC patients for whom standard therapy for advanced disease has failed
[4] = patients with cancer receiving the 150 mg/day dose
[5] = randomized phase III trial, second line therapy of NSCLC

## CCOC(=O)c1ccc(C#Cc2ccc3c(c2)C(C)(C)CCS3)nc1 [tazarotene]
[1]
  expression of RARRES1 gene: up regulated

## CC(=O)O[C@@]12CO[C@@H]1C[C@H](O)[C@@]1(C)C(=O)[C@H](O)C3=C(C)[C@@H](OC(=O)[C@H](O)[C@@H](NC(=O)OC(C)(C)C)c4ccccc4)C[C@@](O)([C@@H](OC(=O)c4ccccc4)[C@H]21)C3(C)C [docetaxel]
[2]; second line vs best supportive care, after cisplatin-based first-line regimens had failed
  survival: improved survival

## C#Cc1cccc(Nc2ncnc3cc(OCCOC)c(OCCOC)cc23)c1 [Tarceva, erlotinib]
[3]
  survival: significantly prolongs and improves the survival
[4]
  drug levels in plasma: > 500 ng/mL

## Nc1nc2[nH]cc(CCc3ccc(C(=O)N[C@@H](CCC(=O)O)C(=O)O)cc3)c2c(=O)[nH]1 [pemetrexed]
[2]; [5]
  efficacy compared with docetaxel: clinically equivalent efficacy
  side effects compared with docetaxel: significantly fewer side effects
